Key:
passaged astrocytes = assay: Highly enriched passaged astrocyte cultures, immunostaining; assay type: cell-based, rat; settings: astrocytes passaged 3 times; untreated controls at a significantly reduced level
Experimental: The method of the invention is also exemplified by a third embodiment in which astrocytes are passaged 3 times prior to in vitro treatment with the compound and samples derived from the whole cortex were compared to samples enriched for tissue from the subventricular zone.
For some experiments, freshly dissociated cortical cells were plated in poly lysine coated T-75 flasks. Cells were fed twice weekly with DMEM+10% FBS. After reaching confluence, cells were removed from the T-75 flask with typsin/EDTA (Gibco), pelleted and media removed. The cell pellet was resuspended in DMEM+10% FBS and split 1 to 5 into new T-75 flasks. This process was repeated 2 more times. After reaching confluence on the fourth passage, cells were removed from the T-75 flask as describe above and plated on poly lysine coated 24 well cluster plates at a density of 1×10^5 cells per well. Cells were maintained in DMEM+10% FB S until they reached confluence at which point, the media was removed and replaced with NeuralBasal+B27 supplementsN-[4-[(4-fluorophenyl)sulfonyl]phenyl]acetamide was dissolved in 2 hydroxypropyl-β-cyclodextrin and added to cultures at final concentrations ranging from 100 μg/ml to 10 ng/ml. […]

PND5 rat cultures = assay: Post natal day 5 rat cortical/subventricular zone cultures, immunostaining; assay type: cell-based
Experimental: The method of the invention is also exemplified by a second embodiment in which N-[4-[(4-fluorophenyl)sulfonyl]phenyl]acetamide is administered in vitro to tissue from postnatal mammals. Treatment with N-[4-[(4-fluorophenyl)sulfonyl]phenyl]acetamide results in neuroregeneration as evidenced by immunostaining for beta-tubulin, eNCAM and MAP II. Neural tissue harvested from Post Natal day 5 (PND5) animals can be prepared in culture by the method above used with E18 cells, except that the cultures are not treated with glutamate because the neurons are unable to survive the culture preparation step. Using an assay system, cells can be treated with N-[4-[(4-fluorophenyl)sulfonyl]phenyl]acetamide 24 hours after the cultures are established.
In one study, PND-5 day cultures generated from tissue isolated specifically from the subventricular zone were compared to cultures generated from the whole cortex. Twenty four hours after dissection, cultures were treated with the compound. Four weeks after treatment, cultures were immunostained with antibodies against β-tubulin or antibodies against MAP II.
Post natal day 5 rat pups (Taconic Labs) were decapitated, skin covering the cranium was removed so the bone over top the brain could be opened. Using a sterile spatula, the brain was extracted from the opened cranium and transferred to a 60 mm petri dish (Corning) containing sterile, ice cold Hank's balanced salt solution (HBSS). The meningial tissue was removed from the cortex, the cortex was gently teased away from the subcortical structures and transferred to a new 60 mm petri dish containing ice cold HBSS. Using a pair of fine, curved forceps, the desired cortical material was pinched from the remainder of the cortex and transferred to a new 60 mm petri dish containing ice cold HBSS. For most experiments, only tissue in the immediate vicinity of the subventricular zone was collected while in a few experiments, almost the entire cortex was pinched leaving only the outer most layer of cortical tissue behind. After harvesting all cortical tissue, the tissue was minced using two #11 scalpel blades that were repeatedly drawn across each other. After the majority of the tissue was minced into approximately 1 mm cubes, the HBSS was removed and replaced with 4 ml of trypsin/EDTA (Gibco—0.5%/5.3 mM) plus 1 ml of DNase (Sigma—0.01%). The petri dish containing tissue and enzymes were placed in a 37° C. incubator for 30 minutes and agitated every 5 minutes. After 30 minutes, the tissue was removed from the incubator and 1 ml 0.1 mg/ml of soybean trypsin inhibitor was added. Tissue was transferred to a 15 ml conical tube, spun at 500×g for 10 minutes in a refrigerated centrifuge. Supernatant was removed, the pellet was resuspended in 10 ml of DMEM+10% FBS, passed first through a 100 μm filter (Falcon) and finally through a 40 μm filter (Falcon). A cell count was performed to determine the final volume of media needed to yield a cell density of 1×10^6 viable cells per ml. Five hundred microliters of supernatant containing 5×10^5 viable cells was added to each well of 24 well cluster plates previously coated with 5 μg/ml poly lysine.
To remove the cellular debris, all plates were washed 24 hours after plating. Each plate was gently rocked several times, the media was removed and replaced with 1 ml of 37° C. DMEM. […]

[1] = system: compressive injuries to the spinal cords of rats; assay: Compressive spinal cord injury, closure of cavities; assay type: in vivo, rat; settings: compound in a saline vehicle; vs untreated or saline treated rats
Description: In another study, cavities are induced by compressive injuries to the spinal cords of rats. In the study, rats are either untreated, treated with a saline vehicle, or treated with N-[4-[(4-fluorophenyl)sulfonyl]phenyl]acetamide in a saline vehicle.

[2] = system: spinal cord of an injured recipient animal; assay: Bone marrow cell implantation at spinal cord injury site with BrdU labelling; assay type: in vivo, rat; settings: 12 weeks after implantation of bone marrow cells from orally treated donor
Experimental: In preferred embodiments, the invention relates to regenerating nerve tissue in vivo. Methods of the invention include administering a therapeutically effective dose of a composition of the invention to a first mammal in need of neural regeneration. In some embodiments, a compound of Formula (I) or Formula (II) is administered, preferably orally administered, to a mammal in need of tissue regeneration, preferably neural tissue regeneration. In some embodiments, methods of the invention comprise administering a compound of Formula (I) or Formula (II) to a first mammal, harvesting cells from the first mammal after administration of the compound and subsequently delivering the harvested cells locally at a site where increased neural expression or increased neural regeneration is needed, wherein the injury site can be in the first mammal or in a second mammal. In some embodiments, the compositions of the invention can be administered intralesionally. Preferably, the harvested cells are from any type of stem cell, for example bone marrow cells. For example, bone marrow cells can be collected from a donor animal (e.g., a rat) within two weeks, preferably within three to seven days, after oral administration of N-[4-[(4-fluorophenyl)sulfonyl]phenyl]acetamide in a pharmaceutically acceptable carrier to the donor animal. […]

[3] = study of subventricular zone vs whole cortex cultures, four weeks after treatment

In the case of `CC(=O)Nc1ccc(S(=O)(=O)c2ccc(F)cc2)cc1` [N-[4-[(4-fluorophenyl)sulfonyl]phenyl]acetamide], the “beta-tubulin positive cells with neuronal morphologies” value (passaged astrocytes) is reported as “show beta-tubulin positive cells with neuronal morphologies”, the “number of β-tubulin positive cells” value (PND5 rat cultures; four weeks post treatment, vs untreated control wells) is reported as “increased numbers of β-tubulin positive cells” and the eNCAM expression (PND5 rat cultures; one week post treatment, vs untreated control samples) is reported as “Enhanced expression of eNCAM”. For the same compound, the MAP-II expression (PND5 rat cultures; six weeks post treatment, vs untreated control samples) was “MAP-II expression is enhanced”, the “number of MAP II positive cells” value (PND5 rat cultures; [3]) was “Greater numbers” and the “number of β-tubulin positive cells” value (PND5 rat cultures; [3]) was “Greater numbers”. For the same compound, the “extent of closure of the cavity in the spinal cord” value [1] was “most extensive closure of the cavity” and the “BrdU incorporation and expression of nestin, beta-tubulin and GFAP in spinal cord tissue” value [2] was “shows incorporation of BrdU in cell nuclei, as well as expression of nestin, beta-tubulin and GFAP”.
